Measured values reported in PubChem BioAssay AID1745844 (Carcinogenic Potency Database (CPDB), 2022).
Active and inactive are the calls of the source. The rule behind the calls is not given here.

Tested on: rodent lifetime carcinogenesis bioassay, tumor incidence TD50
Assay: carcinogenic potency in animals, long-term in vivo studies, CPDB compilation (AID 1745844)

CCN=[N+](C)[O-]
TD50 (rat, strain Fischer 344, males, in drinking water, site: kidney, lesion: several types, types named in the paper, dosed 30 weeks, study length 95 weeks): 123 mg/kg/day
TD50 (rat, strain Fischer 344, males, in drinking water, site: liver, lesion: hemangiosarcoma, dosed 30 weeks, study length 95 weeks): 302 mg/kg/day
TD50 (rat, strain Fischer 344, males, in drinking water, site: liver, lesion: hepatocellular carcinoma, dosed 30 weeks, study length 95 weeks): 18.2 mg/kg/day
TD50 (rat, strain Fischer 344, males, in drinking water, site: liver, lesion: neoplastic nodule, dosed 30 weeks, study length 95 weeks): 664 mg/kg/day
TD50 (rat, strain Fischer 344, males, in drinking water, site: liver, lesion: several types, types named in the paper, dosed 30 weeks, study length 95 weeks): 11.5 mg/kg/day

ClC1(Cl)C2(Cl)C3(Cl)C4(Cl)C(Cl)(Cl)C5(Cl)C3(Cl)C1(Cl)C5(Cl)C24Cl (stereo not given)
TD50 (mouse, strain B6AKF1, females, oral dosing, site: any site (literature study), lesion: several types, types named in the paper, dosed 68 weeks, study length 68 weeks): 1.26 mg/kg/day
TD50 (mouse, strain B6AKF1, females, oral dosing, site: liver, lesion: hepatoma, dosed 68 weeks, study length 68 weeks): 1.1 mg/kg/day
TD50 (mouse, strain B6AKF1, males, oral dosing, site: any site (literature study), lesion: several types, types named in the paper, dosed 58 weeks, study length 58 weeks): 3.32 mg/kg/day
TD50 (mouse, strain B6AKF1, males, oral dosing, site: liver, lesion: hepatoma, dosed 58 weeks, study length 58 weeks): 2.13 mg/kg/day
TD50 (mouse, strain B6C3F1, females, oral dosing, site: any site (literature study), lesion: several types, types named in the paper, dosed 69 weeks, study length 69 weeks): 1.6 mg/kg/day
TD50 (mouse, strain B6C3F1, females, oral dosing, site: liver, lesion: hepatoma, dosed 69 weeks, study length 69 weeks): 1.6 mg/kg/day
TD50 (mouse, strain B6C3F1, males, oral dosing, site: any site (literature study), lesion: several types, types named in the paper, dosed 58 weeks, study length 58 weeks): 1.5 mg/kg/day
TD50 (mouse, strain B6C3F1, males, oral dosing, site: liver, lesion: hepatoma, dosed 58 weeks, study length 58 weeks): 1.83 mg/kg/day
TD50 (mouse, strain B6C3F1, males, oral dosing, site: liver, lesion: several types, types named in the paper, dosed 58 weeks, study length 58 weeks): 1.5 mg/kg/day
TD50 (rat, strain Fischer 344, females, in feed, site: any site (literature study), lesion: several types, types named in the paper, dosed 104 weeks, study length 105 weeks): 21.9 mg/kg/day
TD50 (rat, strain Fischer 344, females, in feed, site: any site (literature study), lesion: several types, types named in the paper, dosed 104 weeks, study length 107 weeks): 22.4 mg/kg/day
TD50 (rat, strain Fischer 344, females, in feed, site: liver + multiple organs + spleen, lesion: hepatocellular carcinoma + neoplastic nodule + mononuclear-cell leukemia, dosed 104 weeks, study length 105 weeks): 3.34 mg/kg/day
TD50 (rat, strain Fischer 344, females, in feed, site: liver, lesion: hepatocellular adenoma + hepatocellular carcinoma + neoplastic nodule, dosed 104 weeks, study length 105 weeks): 3.17 mg/kg/day
TD50 (rat, strain Fischer 344, females, in feed, site: liver, lesion: hepatocellular adenoma + hepatocellular carcinoma + neoplastic nodule, dosed 104 weeks, study length 107 weeks): 16.5 mg/kg/day
TD50 (rat, strain Fischer 344, females, in feed, site: liver, lesion: hepatocellular carcinoma + neoplastic nodule, dosed 104 weeks, study length 105 weeks): 3.17 mg/kg/day
TD50 (rat, strain Fischer 344, females, in feed, site: liver, lesion: neoplastic nodule, dosed 104 weeks, study length 105 weeks): 3.22 mg/kg/day
TD50 (rat, strain Fischer 344, females, in feed, site: multiple organs + spleen, lesion: mononuclear-cell leukemia, dosed 104 weeks, study length 105 weeks): 15.7 mg/kg/day
TD50 (rat, strain Fischer 344, females, in feed, site: multiple organs + spleen, lesion: mononuclear-cell leukemia, dosed 104 weeks, study length 107 weeks): 5.97 mg/kg/day
TD50 (rat, strain Fischer 344, males, in feed, site: adrenal gland + kidney/pelvis + liver, lesion: pheochromocytoma + pheochromocytoma, malignant + transitional-cell papilloma + hepatocellular carcinoma + neoplastic nodule, dosed 104 weeks, study length 104 weeks): 0.669 mg/kg/day
TD50 (rat, strain Fischer 344, males, in feed, site: adrenal gland, lesion: pheochromocytoma + pheochromocytoma, malignant, dosed 104 weeks, study length 104 weeks): 1.43 mg/kg/day
TD50 (rat, strain Fischer 344, males, in feed, site: any site (literature study), lesion: several types, types named in the paper, dosed 104 weeks, study length 104 weeks): 0.618 mg/kg/day
TD50 (rat, strain Fischer 344, males, in feed, site: kidney/pelvis, lesion: transitional-cell papilloma, dosed 104 weeks, study length 104 weeks): 13.5 mg/kg/day
TD50 (rat, strain Fischer 344, males, in feed, site: liver, lesion: hepatocellular adenoma + hepatocellular carcinoma + neoplastic nodule, dosed 104 weeks, study length 104 weeks): 0.825 mg/kg/day
TD50 (rat, strain Fischer 344, males, in feed, site: liver, lesion: hepatocellular carcinoma + neoplastic nodule, dosed 104 weeks, study length 104 weeks): 0.825 mg/kg/day
TD50 (rat, strain Fischer 344, males, in feed, site: liver, lesion: hepatocellular carcinoma, dosed 104 weeks, study length 104 weeks): 7.09 mg/kg/day
TD50 (rat, strain Fischer 344, males, in feed, site: liver, lesion: neoplastic nodule, dosed 104 weeks, study length 104 weeks): 0.87 mg/kg/day
TD50 (rat, strain Fischer 344, males, in feed, site: testis, lesion: interstitial-cell tumor, dosed 104 weeks, study length 104 weeks): 0.708 mg/kg/day
TD50 (rat, strain Fischer 344, males, in feed, site: thyroid gland, lesion: follicular-cell adenoma + follicular-cell carcinoma, dosed 104 weeks, study length 104 weeks): 10.4 mg/kg/day
TD50 (rat, strain Fischer 344, males, in feed, site: thyroid gland, lesion: follicular-cell adenoma, dosed 104 weeks, study length 104 weeks): 12.7 mg/kg/day

CC(C)COC(=O)c1ccc(O)cc1
TD50 (mouse, strain ICR/Jcl, females, in feed, site: any site (literature study), lesion: several types, types named in the paper, dosed 102 weeks, study length 106 weeks): 12300 mg/kg/day (inactive)
carcinogen call (mouse, strain ICR/Jcl, females, in feed, site: liver, lesion: one or several types, types not named, dosed 102 weeks, study length 106 weeks): negative (inactive)
TD50 (mouse, strain ICR/Jcl, females, in feed, site: lung, lesion: one or several types, types not named, dosed 102 weeks, study length 106 weeks): 37200 mg/kg/day (inactive)
TD50 (mouse, strain ICR/Jcl, males, in feed, site: any site (literature study), lesion: several types, types named in the paper, dosed 102 weeks, study length 104 weeks): 6570 mg/kg/day (inactive)
TD50 (mouse, strain ICR/Jcl, males, in feed, site: liver, lesion: one or several types, types not named, dosed 102 weeks, study length 104 weeks): 26300 mg/kg/day (inactive)
carcinogen call (mouse, strain ICR/Jcl, males, in feed, site: lung, lesion: one or several types, types not named, dosed 102 weeks, study length 104 weeks): negative (inactive)

O=C([O-])c1cc(N=Nc2ccc(-c3ccc(N=Nc4c(O)ccc(N=Nc5cc(S(=O)(=O)[O-])ccc5[O-])c4[O-])cc3)cc2)ccc1O.[Cu+2].[Na+].[Na+]
TD50 (rat, strain Fischer 344, females, in feed, site: any site (literature study), lesion: several types, types named in the paper, dosed 13 weeks, study length 13 weeks): 2.07 mg/kg/day
TD50 (rat, strain Fischer 344, females, in feed, site: liver, lesion: hepatocellular adenoma + hepatocellular carcinoma + neoplastic nodule, dosed 13 weeks, study length 13 weeks): 2.07 mg/kg/day
TD50 (rat, strain Fischer 344, females, in feed, site: liver, lesion: hepatocellular carcinoma + neoplastic nodule, dosed 13 weeks, study length 13 weeks): 2.07 mg/kg/day
carcinogen call (rat, strain Fischer 344, males, in feed, site: any site (literature study), lesion: several types, types named in the paper, dosed 13 weeks, study length 13 weeks): negative (inactive)

CC=O
TD50 (hamster, strain Syrian Golden, females, inhaled, site: larynx, lesion: adenosquamous carcinoma, dosed 52 weeks, study length 81 weeks): 1140 mg/kg/day
TD50 (hamster, strain Syrian Golden, females, inhaled, site: larynx, lesion: several types, types named in the paper, dosed 52 weeks, study length 81 weeks): 728 mg/kg/day
TD50 (hamster, strain Syrian Golden, females, inhaled, site: larynx, lesion: squamous-cell carcinoma, dosed 52 weeks, study length 81 weeks): 2360 mg/kg/day
TD50 (hamster, strain Syrian Golden, males, inhaled, site: larynx, lesion: carcinoma, in situ, dosed 52 weeks, study length 81 weeks): 641 mg/kg/day
TD50 (hamster, strain Syrian Golden, males, inhaled, site: larynx, lesion: several types, types named in the paper, dosed 52 weeks, study length 81 weeks): 461 mg/kg/day
TD50 (hamster, strain Syrian Golden, males, inhaled, site: larynx, lesion: squamous-cell carcinoma, dosed 52 weeks, study length 81 weeks): 2070 mg/kg/day
TD50 (hamster, strain Syrian Golden, males, inhaled, site: nose, lesion: anaplastic carcinoma, dosed 52 weeks, study length 81 weeks): 2070 mg/kg/day
TD50 (hamster, strain Syrian Golden, males, inhaled, site: respiratory system, lesion: several types, types named in the paper, dosed 52 weeks, study length 81 weeks): 461 mg/kg/day
TD50 (rat, strain Wistar-random, females, inhaled, site: nasal mucosa, lesion: adenocarcinoma, dosed 50 weeks, study length 105 weeks): 201 mg/kg/day
TD50 (rat, strain Wistar-random, females, inhaled, site: nasal mucosa, lesion: several types, types named in the paper, dosed 50 weeks, study length 105 weeks): 148 mg/kg/day
TD50 (rat, strain Wistar-random, females, inhaled, site: nasal mucosa, lesion: squamous-cell carcinoma, dosed 50 weeks, study length 105 weeks): 574 mg/kg/day
TD50 (rat, strain Wistar-random, males, inhaled, site: nasal mucosa, lesion: adenocarcinoma, dosed 50 weeks, study length 105 weeks): 190 mg/kg/day
TD50 (rat, strain Wistar-random, males, inhaled, site: nasal mucosa, lesion: several types, types named in the paper, dosed 50 weeks, study length 105 weeks): 88.5 mg/kg/day
TD50 (rat, strain Wistar-random, males, inhaled, site: nasal mucosa, lesion: squamous-cell carcinoma, dosed 50 weeks, study length 105 weeks): 200 mg/kg/day
TD50 (rat, strain Wistar, females, inhaled, site: nose, lesion: adenocarcinoma, dosed 111 weeks, study length 121 weeks): 370 mg/kg/day
TD50 (rat, strain Wistar, females, inhaled, site: nose, lesion: carcinoma, in situ, dosed 111 weeks, study length 121 weeks): 3000 mg/kg/day
TD50 (rat, strain Wistar, females, inhaled, site: nose, lesion: squamous-cell carcinoma, dosed 111 weeks, study length 121 weeks): 1030 mg/kg/day
TD50 (rat, strain Wistar, males, inhaled, site: nose, lesion: adenocarcinoma, dosed 111 weeks, study length 121 weeks): 185 mg/kg/day
TD50 (rat, strain Wistar, males, inhaled, site: nose, lesion: squamous-cell carcinoma, dosed 111 weeks, study length 121 weeks): 627 mg/kg/day

Cc1c([N+](=O)[O-])c(C)c([N+](=O)[O-])c(C(C)(C)C)c1[N+](=O)[O-]
TD50 (mouse, strain B6C3F1, females, in feed, site: Harderian gland, lesion: several types, types named in the paper, dosed 80 weeks, study length 90 weeks): 2250 mg/kg/day
TD50 (mouse, strain B6C3F1, females, in feed, site: all sites, lesion: lymphoma, dosed 80 weeks, study length 90 weeks): 1300 mg/kg/day
TD50 (mouse, strain B6C3F1, females, in feed, site: any site (literature study), lesion: malignant tumor, dosed 80 weeks, study length 90 weeks): 418 mg/kg/day
TD50 (mouse, strain B6C3F1, females, in feed, site: liver, lesion: hepatocellular adenoma, dosed 80 weeks, study length 90 weeks): 234 mg/kg/day
TD50 (mouse, strain B6C3F1, females, in feed, site: liver, lesion: hepatocellular carcinoma, dosed 80 weeks, study length 90 weeks): 2190 mg/kg/day
TD50 (mouse, strain B6C3F1, females, in feed, site: liver, lesion: several types, types named in the paper, dosed 80 weeks, study length 90 weeks): 203 mg/kg/day
TD50 (mouse, strain B6C3F1, females, in feed, site: lung, lesion: adenoma, dosed 80 weeks, study length 90 weeks): 1630 mg/kg/day
TD50 (mouse, strain B6C3F1, females, in feed, site: lung, lesion: carcinoma, dosed 80 weeks, study length 90 weeks): 6650 mg/kg/day
TD50 (mouse, strain B6C3F1, females, in feed, site: lung, lesion: several types, types named in the paper, dosed 80 weeks, study length 90 weeks): 1300 mg/kg/day
TD50 (mouse, strain B6C3F1, females, in feed, site: uterus, lesion: endometrial stromal sarcoma, dosed 80 weeks, study length 90 weeks): 533 mg/kg/day
TD50 (mouse, strain B6C3F1, males, in feed, site: Harderian gland, lesion: adenoma, dosed 80 weeks, study length 90 weeks): 383 mg/kg/day
TD50 (mouse, strain B6C3F1, males, in feed, site: Harderian gland, lesion: several types, types named in the paper, dosed 80 weeks, study length 90 weeks): 425 mg/kg/day
TD50 (mouse, strain B6C3F1, males, in feed, site: any site (literature study), lesion: malignant tumor, dosed 80 weeks, study length 90 weeks): 334 mg/kg/day
TD50 (mouse, strain B6C3F1, males, in feed, site: liver, lesion: hepatocellular adenoma, dosed 80 weeks, study length 90 weeks): 232 mg/kg/day
TD50 (mouse, strain B6C3F1, males, in feed, site: liver, lesion: hepatocellular carcinoma, dosed 80 weeks, study length 90 weeks): 313 mg/kg/day
TD50 (mouse, strain B6C3F1, males, in feed, site: liver, lesion: several types, types named in the paper, dosed 80 weeks, study length 90 weeks): 92.1 mg/kg/day
TD50 (mouse, strain B6C3F1, males, in feed, site: lung, lesion: adenoma, dosed 80 weeks, study length 90 weeks): 1200 mg/kg/day
